Results as given in patent publication US9605163B2, “Aminoalcohol compounds and their use as zero or low VOC additives for paints and coatings” (ANGUS CHEMICAL COMPANY, priority 2011, dated 2017).
Values belong to the compound of their own block, whether it stands above or below them.

Legend:
[1] = pKa determination by titration with H2SO4 in water; type: physicochemical; settings: 0.5 N H2SO4, water as solvent
Description: pKa. pKa values are determined by titration using 0.5 NH2SO4 as titrant with water as solvent. Duplicate analyses are performed.

[2] = Freeze-thaw cycles of paint samples, Krebs Stormer viscosity; settings: for Initial Viscosity (KU): paint of Table 5, additive post-added at 2 wt %, before freeze-thaw
Description: The paint formulations are prepared using F/T agent 1 as shown by structures below. The octanol water partition coefficient is calculated using the method of Moriguchi et al., Chem. Pharm. Bull. 40(1), 127-130 (1992). The calculated octanol-water partition coefficient for F/T-1 is 0.69. […] Paint samples are frozen at −18° C. for 17 hours and then thawed at 25° C. for 7 hours. This constitutes 1 complete freeze-thaw cycle. Viscosities are measured after each freeze-thaw cycle using a Krebs Stormer Viscometer from Sheen at room temperature. The viscosity is measured in Krebs unit (KU). The results of freeze-thaw cycles on paint samples that contain a zero-VOC compound of the invention as a post-add are listed in the Table 6. The post-add compound is mixed at 2 wt % in the paint samples. The same paint formulation is used in preparing all the samples. The paint sample without any post-add is designated as “Blank.”
The KU values below 150 as reported in Table 9 are considered acceptable, and all the values (other than that for the Blank) reported are considered very acceptable.

[3] = VOC according to ASTM D6886-rev gas chromatography method; type: physicochemical; settings: for Percent VOC measured on the crude amine sample: ASTM D6886-rev, value attributed to impurities / residual amine; for VOC classification according to ASTM D6886-rev protocol: pure compound
Description: “Zero or low VOC compound” and like terms mean that a particular aminoalcohol compound of the invention passes the criteria set forth by one or more gas chromatography methods, such as ASTM D6886-rev method, ISO 11890 or GB 18581. ASTM D6886-rev method is preferred.
VOC. VOC properties are tested according to the ASTM D6886-rev method.

[4] = additive 2 wt %, cycle = −18° C. 17 hours, 25° C. 7 hours

pKa [1]: 8
Compound: CC(O)CNC(CO)(CO)CO (stereo not shown) [TA-1PO, 2-(hydroxymethyl)-2-((2-hydroxypropyl)amino)propane-1,3-diol]

pKa [1]: 9 | Percent VOC measured on the crude amine sample [3]: 3.6% | VOC classification according to ASTM D6886-rev protocol [3]: zero VOC
Compound: CC(C)(C)CC(C)(C)N(CC(O)CO)CC(O)CO (stereo not shown) [3,3′-((2,4,4-trimethylpentan-2-yl)azanediyl)bis(propane-1,2-diol)]

pKa [1]: 8.7
Compound: CCC(O)CNC(CC)(CO)CO (stereo not shown) [AEPD-1BO, 2-ethyl-2-((2-hydroxybutyl)amino)propane-1,3-diol]

Second part, the compound before the results:

Compound: OCCOCCO [Diethylene Glycol, diethylene glycol, reference compound]
Viscosity after Freeze-Thaw cycles (KU), 5th cycle [2, 4]: 98 KU | Initial Viscosity (KU) [2]: 91.0 KU

Compound: CC(C)(C)CC(C)(C)N(CC(O)CO)CC(O)CO (stereo not shown) [F/T Agent 1]
Viscosity after Freeze-Thaw cycles (KU), 1st cycle [2, 4]: 92.6 KU | Viscosity after Freeze-Thaw cycles (KU), 2nd cycle [2, 4]: 100.8 KU | Viscosity after Freeze-Thaw cycles (KU), 3rd cycle [2, 4]: 103.1 KU | Viscosity after Freeze-Thaw cycles (KU), 4th cycle [2, 4]: 104.2 KU | Viscosity after Freeze-Thaw cycles (KU), 5th cycle [2, 4]: 105.3 KU | Freeze-thaw survival of paint samples ([2]; additive as post-add): survive five freeze-thaw cycles | Initial Viscosity (KU) [2]: 85.2 KU

Compound: CC(C)OCC(O)CNC(CO)(CO)CO (stereo not shown) [TA-IPM, 2-((2-hydroxy-3-isopropoxypropyl)amino)-2-(hydroxymethyl)propane-1,3-diol]
pKa [1]: 7.8 | Percent VOC measured on the crude amine sample [3]: 8.7% | VOC classification according to ASTM D6886-rev protocol [3]: zero VOC

Compound: CCC(O)CN(CC(O)CC)C(C)(C)CO (stereo not shown) [AMP-2BO, 1,1′-((1-hydroxy-2-methylpropan-2-yl)azanediyl)bis(butan-2-ol)]
pKa [1]: 9.1

Compound: OCCN(CCO)C1CCCCC1O (stereo not shown) [DEA-CyHO, 2,2′-((2-hydroxycyclohexyl)azanediyl)diethanol]
pKa [1]: 8.6
